Source: PubChem BioAssay (NCI)
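Interpolation was linear, between the two tested concentrations surrounding the appropriate level; five concentrations were tested over 48 hours in 96-well plates. TGI is the concentration that stops growth completely.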

What was measured:
Experiment in all cases: NCI tumour cell line growth inhibition, 48 h
[1] = tested on: A549 NSCLC
[2] = tested on: SR leukemia
[3] = tested on: OVCAR-5 ovarian
[4] = tested on: NCI-H23 lung
[5] = tested on: SK-MEL-5 melanoma
[6] = tested on: LXFL 529 NSCLC
[7] = tested on: DMS 114 small cell lung
[8] = tested on: CCRF-CEM leukemia
[9] = tested on: SK-MEL-28 melanoma
[10] = tested on: SNB-75 CNS
[11] = tested on: SF-295 CNS
[12] = tested on: K-562 leukemia
[13] = tested on: IGROV1 ovarian
[14] = tested on: HOP-92 NSCLC
[15] = tested on: DMS 273 small cell lung
[16] = tested on: UO-31 renal
[17] = tested on: SNB-78 CNS
[18] = tested on: SK-OV-3 ovarian
[19] = tested on: ACHN renal
[20] = tested on: RPMI-8226 leukemia
[21] = tested on: SN12C renal
[22] = tested on: SW-620 colon
[23] = tested on: COLO 205 colon
[24] = tested on: TK-10 renal
[25] = tested on: KM12 colon
[26] = tested on: HOP-18 NSCLC
[27] = tested on: MALME-3M melanoma
[28] = tested on: HL-60(TB) leukemia
[29] = tested on: RXF 393 renal
[30] = tested on: NCI-H460 lung
[31] = tested on: UACC-257 melanoma
[32] = tested on: SK-MEL-2 melanoma
[33] = tested on: MOLT-4 leukemia
[34] = tested on: UACC-62 melanoma
[35] = tested on: OVCAR-8 ovarian
[36] = tested on: SNB-19 CNS
[37] = tested on: SF-539 CNS
[38] = tested on: HCT-116 colon
[39] = tested on: A498 renal
[40] = tested on: NCI-H522 lung
[41] = tested on: 786-0 renal
[42] = tested on: DLD-1 colon
[43] = tested on: OVCAR-3 ovarian
[44] = tested on: CAKI-1 renal
[45] = tested on: HCC-2998 colon
[46] = tested on: SF-268 CNS
[47] = tested on: HT29 colon
[48] = tested on: RXF-631 renal
[49] = tested on: U251 CNS
[50] = tested on: KM20L2 colon
[51] = tested on: HOP-62 NSCLC
[52] = tested on: LOX IMVI melanoma
[53] = tested on: NCI/ADR-RES ovarian
[54] = tested on: MDA-MB-231 breast
[55] = tested on: MCF7 breast
[56] = tested on: BT-549 breast
[57] = tested on: DU-145 prostate
[58] = tested on: P388 leukemia
[59] = tested on: T-47D breast
[60] = tested on: M14 melanoma
[61] = tested on: PC-3 prostate
[62] = tested on: HS 578T breast
[63] = tested on: SN12K1 renal
[64] = tested on: M19-MEL melanoma
[65] = tested on: P388/ADR leukemia
[66] = tested on: NCI-H226 lung
[67] = tested on: HCT-15 colon
[68] = tested on: OVCAR-4 ovarian
[69] = tested on: XF 498 CNS
[70] = tested on: MDA-MB-435
[71] = tested on: MDA-N
[72] = tested on: EKVX NSCLC

ClC(Cl)[Si]12OCCN(CCO1)CCO2
TGI [1]: > 100 µM
TGI [2]: > 100 µM
TGI [3]: > 100 µM
TGI [4]: > 100 µM
TGI [5]: > 100 µM
TGI [6]: > 100 µM
TGI [7]: > 100 µM
TGI [8]: > 100 µM
TGI [9]: > 100 µM
TGI [10]: > 100 µM
TGI [11]: > 100 µM
TGI [12]: > 100 µM
TGI [13]: > 100 µM
TGI [14]: > 100 µM
TGI [15]: > 100 µM
TGI [16]: > 100 µM
TGI [17]: > 100 µM
TGI [18]: > 100 µM
TGI [19]: > 100 µM
TGI [20]: > 100 µM
TGI [21]: > 100 µM
TGI [22]: > 100 µM
TGI [23]: > 100 µM
TGI [24]: > 100 µM
TGI [25]: > 100 µM
TGI [26]: > 100 µM
TGI [27]: > 100 µM
TGI [28]: > 100 µM
TGI [29]: > 100 µM
TGI [30]: > 100 µM
TGI [31]: > 100 µM
TGI [32]: > 100 µM
TGI [33]: > 100 µM
TGI [34]: > 100 µM
TGI [35]: > 100 µM
TGI [36]: > 100 µM
TGI [37]: > 100 µM
TGI [38]: > 100 µM
TGI [39]: > 100 µM
TGI [40]: > 100 µM
TGI [41]: > 100 µM
TGI [42]: > 100 µM
TGI [43]: > 100 µM
TGI [44]: > 100 µM
TGI [45]: > 100 µM
TGI [46]: > 100 µM
TGI [47]: > 100 µM
TGI [48]: > 100 µM
TGI [49]: > 100 µM

NS(=O)(=O)OCCCCCCCOS(N)(=O)=O
TGI [50]: 1470 µM
TGI [1]: 729 µM
TGI [2]: 912 µM
TGI [3]: 1400 µM
TGI [4]: 795 µM
TGI [51]: 676 µM
TGI [5]: 649 µM
TGI [52]: 724 µM
TGI [53]: 1050 µM
TGI [7]: 669 µM
TGI [8]: 1140 µM
TGI [9]: 1680 µM
TGI [10]: 711 µM
TGI [11]: 1020 µM
TGI [12]: 2110 µM
TGI [13]: 937 µM
TGI [14]: 781 µM
TGI [54]: 1030 µM
TGI [15]: 454 µM
TGI [55]: 1780 µM
TGI [16]: 680 µM
TGI [56]: 430 µM
TGI [17]: 2020 µM
TGI [18]: 1570 µM
TGI [19]: 951 µM
TGI [20]: 1330 µM
TGI [21]: 1180 µM
TGI [57]: 873 µM
TGI [58]: 1300 µM
TGI [59]: 1880 µM
TGI [60]: 579 µM
TGI [22]: 1280 µM
TGI [61]: 1240 µM
TGI [62]: 1790 µM
TGI [63]: 605 µM
TGI [64]: 1300 µM
TGI [23]: 814 µM
TGI [24]: 1920 µM
TGI [25]: 1000 µM
TGI [26]: 2350 µM
TGI [27]: 1050 µM
TGI [65]: 2060 µM
TGI [28]: 469 µM
TGI [29]: 660 µM
TGI [30]: 401 µM
TGI [66]: 887 µM
TGI [31]: 1310 µM
TGI [32]: 836 µM
TGI [33]: 790 µM
TGI [34]: 412 µM
TGI [67]: 1190 µM
TGI [35]: 707 µM
TGI [36]: 1250 µM
TGI [37]: 645 µM
TGI [68]: 1110 µM
TGI [38]: 820 µM
TGI [39]: 770 µM
TGI [69]: 112 µM
TGI [70]: 921 µM
TGI [71]: 1210 µM
TGI [40]: 916 µM
TGI [41]: 571 µM
TGI [72]: 847 µM
TGI [42]: 1540 µM
TGI [43]: 835 µM
TGI [44]: 594 µM
TGI [45]: 718 µM
TGI [46]: 1290 µM
TGI [47]: 1630 µM
TGI [49]: 683 µM

CC(C)(C)C(C#N)(C#N)c1ccc(C(C#N)(C#N)C(C)(C)C)nn1
TGI [50]: > 100 µM
TGI [1]: > 100 µM
TGI [3]: > 100 µM
TGI [4]: > 100 µM
TGI [51]: > 100 µM
TGI [5]: > 100 µM
TGI [6]: > 100 µM
TGI [52]: > 100 µM
TGI [7]: > 100 µM
TGI [8]: > 100 µM
TGI [9]: > 100 µM
TGI [10]: 75.2 µM
TGI [11]: > 100 µM
TGI [12]: > 100 µM
TGI [13]: > 100 µM
TGI [14]: > 100 µM
TGI [15]: > 100 µM
TGI [16]: > 100 µM
TGI [17]: > 100 µM
TGI [18]: > 100 µM
TGI [19]: > 100 µM
TGI [20]: > 100 µM
TGI [21]: > 100 µM
TGI [60]: > 100 µM
TGI [22]: > 100 µM
TGI [64]: > 100 µM
TGI [23]: > 100 µM
TGI [24]: > 100 µM
TGI [25]: > 100 µM
TGI [27]: > 100 µM
TGI [28]: > 100 µM
TGI [29]: > 100 µM
TGI [30]: > 100 µM
TGI [31]: > 100 µM
TGI [32]: > 100 µM
TGI [33]: > 100 µM
TGI [34]: > 100 µM
TGI [67]: > 100 µM
TGI [35]: > 100 µM
TGI [36]: > 100 µM
TGI [37]: > 100 µM
TGI [68]: > 100 µM
TGI [69]: > 100 µM
TGI [40]: > 100 µM
TGI [41]: > 100 µM
TGI [72]: > 100 µM
TGI [42]: > 100 µM
TGI [43]: > 100 µM
TGI [44]: > 100 µM
TGI [45]: > 100 µM
TGI [46]: > 100 µM
TGI [47]: > 100 µM
TGI [48]: > 100 µM
